In the supplement of paper PMC4862054:

What was measured:
Details in all cases: 72 h
[1] = test system: DU-4475
In short: (§1)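 Breast cancer cell lines in 20 µl suspension were added to 384-well plates already holding compound at 5 concentrations, spaced in 10-fold steps across a compound-specific 10,000-fold range, and incubated for 72 h. CellTox Green fluorescence (485/520 nm) was read first to measure cell death, followed by CellTiter-Glo luminescence for viability after 10 min at room temperature. Each plate was normalised to 0.1 % DMSO and a positive kill control. EC50 values came from dose-response curve fits and were censored at the top concentration.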

[2] = test system: MDA-MB-231
In short: as §1

[3] = test system: CAL-51
In short: as §1

[4] = test system: HCC1143
In short: as §1

[5] = test system: HCC1599
In short: as §1

[6] = test system: SK-BR-3
In short: as §1

[7] = test system: MFM-223
In short: as §1

[8] = test system: CAL-85-1
In short: as §1

[9] = test system: MDA-MB-468
In short: as §1

[10] = test system: CAL-120
In short: as §1

[11] = test system: MDA-MB-436
In short: as §1

[12] = test system: HCC1937
In short: as §1

[13] = test system: MDA-MB-453
In short: as §1

[14] = test system: CAL-148
In short: as §1

[15] = test system: HDQ-P1
In short: as §1

[16] = test system: BT-549
In short: as §1

[17] = test system: BT-474
In short: as §1

[18] = test system: CAL-51; remark: listed apart in the source
Description: (§2)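 Drug sensitivity and resistance testing (DSRT) of breast cancer cell lines in 384-well plates, 5 concentrations in 10-fold dilutions over a compound-specific 10,000-fold range. After 72 h, cytotoxicity was read by CellTox Green fluorescence and viability by CellTiter-Glo luminescence (multiplexed), normalised to DMSO and benzethonium chloride controls. EC50 is the inflection point of the fitted dose-response curve (bottom asymptote free, so it can be relative for partial curves) and is censored at the highest tested concentration. Rows with DSS 0 (no meaningful response) were excluded.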

[19] = test system: BT-549; remark: listed apart in the source
Description: as §2

[20] = test system: BT-474; remark: listed apart in the source
Description: as §2

[21] = test system: Hs578T
In short: as §1

[22] = test system: DU-4475; remark: listed apart in the source
Description: as §2

[23] = test system: MDA-MB-231; remark: listed apart in the source
Description: as §2

[24] = test system: HCC1599; remark: listed apart in the source
Description: as §2

[25] = test system: MFM-223; remark: listed apart in the source
Description: as §2

[26] = test system: CAL-85-1; remark: listed apart in the source
Description: as §2

[27] = test system: MDA-MB-468; remark: listed apart in the source
Description: as §2

[28] = test system: CAL-120; remark: listed apart in the source
Description: as §2

[29] = test system: HCC1937; remark: listed apart in the source
Description: as §2

[30] = test system: Hs578T; remark: listed apart in the source
Description: as §2

[31] = test system: CAL-148; remark: listed apart in the source
Description: as §2

[32] = test system: HDQ-P1; remark: listed apart in the source
Description: as §2

[33] = test system: MDA-MB-231; remark: listed apart in the source
In short: (§3)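 EC50 is the value from a fitted percent-inhibition dose-response curve, censored at the highest concentration, and rows with zero drug sensitivity score were not kept. The underlying assay seeded breast cancer cell lines in 20 µl onto 384-well plates pre-loaded with compound in 5 µl medium for 72 h. Viability was then read by CellTiter-Blue fluorescence at 560/590 nm after 2 h at 37 °C, with each plate normalised to vehicle and a positive kill control.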

[34] = test system: HCC1143; remark: listed apart in the source
In short: as §3

[35] = test system: HCC1599; remark: listed apart in the source
In short: as §3

[36] = test system: SK-BR-3; remark: listed apart in the source
In short: as §3

[37] = test system: MFM-223; remark: listed apart in the source
In short: as §3

[38] = test system: MDA-MB-468; remark: listed apart in the source
In short: as §3

[39] = test system: CAL-120; remark: listed apart in the source
In short: as §3

[40] = test system: MDA-MB-436; remark: listed apart in the source
In short: as §3

[41] = test system: HCC1937; remark: listed apart in the source
In short: as §3

[42] = test system: Hs578T; remark: listed apart in the source
In short: as §3

[43] = test system: BT-549; remark: listed apart in the source
In short: as §3

[44] = test system: BT-474; remark: listed apart in the source
In short: as §3

[45] = test system: DU-4475; remark: listed apart in the source
In short: as §3

[46] = test system: CAL-51; remark: listed apart in the source
In short: as §3

[47] = test system: CAL-85-1; remark: listed apart in the source
In short: as §3

[48] = test system: MDA-MB-453; remark: listed apart in the source
In short: as §3

[49] = test system: CAL-148; remark: listed apart in the source
In short: as §3

[50] = test system: HDQ-P1; remark: listed apart in the source
In short: as §3

[51] = test system: MCF-10A
In short: as §1

[52] = test system: MCF-10A; remark: listed apart in the source
Description: as §2

[53] = test system: MDA-MB-436; remark: listed apart in the source
Description: as §2

[54] = test system: MDA-MB-453; remark: listed apart in the source
Description: as §2

## C=CCc1cccc(/C=N/NC(=O)CN2CCN(Cc3ccccc3)CC2)c1O [PAC-1]
[1]
  EC50, CellTiter-Glo: 4350 nM
[2]
  EC50, CellTiter-Glo: 3100 nM
[3]
  EC50, CellTiter-Glo: 1620 nM
[4]
  EC50, CellTiter-Glo: 6700 nM
[5]
  EC50, CellTiter-Glo: 7690 nM
[6]
  EC50, CellTiter-Glo: 5200 nM
[7]
  EC50, CellTiter-Glo: 8680 nM
[8]
  EC50, CellTiter-Glo: 5250 nM
[9]
  EC50, CellTiter-Glo: 4580 nM
[10]
  EC50, CellTiter-Glo: 3790 nM
[11]
  EC50, CellTiter-Glo: 3480 nM
[12]
  EC50, CellTiter-Glo: 5300 nM
[13]
  EC50, CellTiter-Glo: 2610 nM
[14]
  EC50, CellTiter-Glo: 6670 nM
[15]
  EC50, CellTiter-Glo: 4980 nM
[16]
  EC50, CellTiter-Glo: 1230 nM
[17]
  EC50, CellTiter-Glo: 3910 nM
[18]
  EC50, CellTox Green: 413 nM
[19]
  EC50, CellTox Green: 1190 nM
[20]
  EC50, CellTox Green: 3520 nM

## COc1cc([C@@H]2c3cc4c(cc3[C@@H](O[C@@H]3O[C@@H]5CO[C@@H](c6cccs6)O[C@H]5[C@H](O)[C@H]3O)[C@H]3COC(=O)[C@H]23)OCO4)cc(OC)c1O [Teniposide]
[1]
  EC50, CellTiter-Glo: 184 nM
[2]
  EC50, CellTiter-Glo: 1910 nM
[3]
  EC50, CellTiter-Glo: 666 nM
[4]
  EC50, CellTiter-Glo: 842 nM
[5]
  EC50, CellTiter-Glo: 176 nM
[6]
  EC50, CellTiter-Glo: 138 nM
[7]
  EC50, CellTiter-Glo: 1740 nM
[8]
  EC50, CellTiter-Glo: 1180 nM
[9]
  EC50, CellTiter-Glo: 614 nM
[10]
  EC50, CellTiter-Glo: 2690 nM
[11]
  EC50, CellTiter-Glo: 204 nM
[12]
  EC50, CellTiter-Glo: 2710 nM
[21]
  EC50, CellTiter-Glo: 2060 nM
[14]
  EC50, CellTiter-Glo: 393 nM
[15]
  EC50, CellTiter-Glo: 5210 nM
[16]
  EC50, CellTiter-Glo: 359 nM
[17]
  EC50, CellTiter-Glo: 888 nM
[22]
  EC50, CellTox Green: 1620 nM
[23]
  EC50, CellTox Green: 1190 nM
[18]
  EC50, CellTox Green: 879 nM
[24]
  EC50, CellTox Green: 350 nM
[25]
  EC50, CellTox Green: 835 nM
[26]
  EC50, CellTox Green: 2390 nM
[27]
  EC50, CellTox Green: 4760 nM
[28]
  EC50, CellTox Green: 4090 nM
[29]
  EC50, CellTox Green: 100 nM
[30]
  EC50, CellTox Green: 4000 nM
[31]
  EC50, CellTox Green: 10.7 nM
[32]
  EC50, CellTox Green: 2380 nM
[33]
  EC50, CellTiter-Blue viability: 2180 nM
[34]
  EC50, CellTiter-Blue viability: 829 nM
[35]
  EC50, CellTiter-Blue viability: 1740 nM
[36]
  EC50, CellTiter-Blue viability: 91.7 nM
[37]
  EC50, CellTiter-Blue viability: 1850 nM
[38]
  EC50, CellTiter-Blue viability: 1080 nM
[39]
  EC50, CellTiter-Blue viability: 999 nM
[40]
  EC50, CellTiter-Blue viability: 1180 nM
[41]
  EC50, CellTiter-Blue viability: 103 nM
[42]
  EC50, CellTiter-Blue viability: 3830 nM
[43]
  EC50, CellTiter-Blue viability: 1510 nM
[44]
  EC50, CellTiter-Blue viability: 5940 nM
[45]
  EC50, CellTiter-Blue viability: 37.1 nM
[46]
  EC50, CellTiter-Blue viability: 75.8 nM
[47]
  EC50, CellTiter-Blue viability: 1450 nM
[48]
  EC50, CellTiter-Blue viability: 1840 nM
[49]
  EC50, CellTiter-Blue viability: 220 nM
[50]
  EC50, CellTiter-Blue viability: 1700 nM

## CC(=O)Nc1cccc(-n2c(=O)n(C3CC3)c(=O)c3c(Nc4ccc(I)cc4F)n(C)c(=O)c(C)c32)c1 [Trametinib]
[1]
  EC50, CellTiter-Glo: 1.37 nM
[2]
  EC50, CellTiter-Glo: 6.45 nM
[7]
  EC50, CellTiter-Glo: 53.2 nM
[8]
  EC50, CellTiter-Glo: 21.1 nM
[10]
  EC50, CellTiter-Glo: 16.2 nM
[11]
  EC50, CellTiter-Glo: 67 nM
[12]
  EC50, CellTiter-Glo: 172 nM
[21]
  EC50, CellTiter-Glo: 137 nM
[51]
  EC50, CellTiter-Glo: 0.71 nM
[15]
  EC50, CellTiter-Glo: 1.7 nM
[17]
  EC50, CellTiter-Glo: 14.7 nM
[22]
  EC50, CellTox Green: 2.32 nM
[23]
  EC50, CellTox Green: 0.4 nM
[26]
  EC50, CellTox Green: 71.5 nM
[28]
  EC50, CellTox Green: 45.4 nM
[52]
  EC50, CellTox Green: 79.2 nM

## COc1cc2c(NC3CCN(C(C)C)CC3)nc(C3CCCCC3)nc2cc1OCCCN1CCCC1 [UNC0638]
[1]
  EC50, CellTiter-Glo: 1650 nM
[2]
  EC50, CellTiter-Glo: 2540 nM
[3]
  EC50, CellTiter-Glo: 1660 nM
[4]
  EC50, CellTiter-Glo: 2380 nM
[5]
  EC50, CellTiter-Glo: 2790 nM
[6]
  EC50, CellTiter-Glo: 2270 nM
[7]
  EC50, CellTiter-Glo: 2270 nM
[8]
  EC50, CellTiter-Glo: 3520 nM
[9]
  EC50, CellTiter-Glo: 1950 nM
[10]
  EC50, CellTiter-Glo: 2720 nM
[11]
  EC50, CellTiter-Glo: 2510 nM
[12]
  EC50, CellTiter-Glo: 3460 nM
[51]
  EC50, CellTiter-Glo: 1880 nM
[13]
  EC50, CellTiter-Glo: 2400 nM
[14]
  EC50, CellTiter-Glo: 2510 nM
[15]
  EC50, CellTiter-Glo: 5250 nM
[16]
  EC50, CellTiter-Glo: 2530 nM
[17]
  EC50, CellTiter-Glo: 2660 nM
[23]
  EC50, CellTox Green: 1650 nM
[18]
  EC50, CellTox Green: 1650 nM
[24]
  EC50, CellTox Green: 1440 nM
[25]
  EC50, CellTox Green: 2920 nM
[26]
  EC50, CellTox Green: 2440 nM
[27]
  EC50, CellTox Green: 2380 nM
[28]
  EC50, CellTox Green: 2440 nM
[53]
  EC50, CellTox Green: 4240 nM
[29]
  EC50, CellTox Green: 2140 nM
[52]
  EC50, CellTox Green: 2230 nM
[54]
  EC50, CellTox Green: 2520 nM
[31]
  EC50, CellTox Green: 2730 nM
[32]
  EC50, CellTox Green: 4720 nM
[19]
  EC50, CellTox Green: 2100 nM
[20]
  EC50, CellTox Green: 2200 nM

## CCCS(=O)(=O)Nc1ccc(F)c(C(=O)c2c[nH]c3ncc(-c4ccc(Cl)cc4)cc23)c1F [Vemurafenib]
[1]
  EC50, CellTiter-Glo: 551 nM
[3]
  EC50, CellTiter-Glo: 1680 nM
[22]
  EC50, CellTox Green: 421 nM
[23]
  EC50, CellTox Green: > 10000 nM
[18]
  EC50, CellTox Green: 21.9 nM
[41]
  EC50, CellTiter-Blue viability: 7820 nM
[42]
  EC50, CellTiter-Blue viability: 9430 nM
[45]
  EC50, CellTiter-Blue viability: 295 nM
[47]
  EC50, CellTiter-Blue viability: > 10000 nM
[50]
  EC50, CellTiter-Blue viability: 3680 nM
